{
  "source": "patent US7671073B2",
  "about": "“Cyclohexylalanine derivatives as dipeptidyl peptidase-IV inhibitors for the treatment or prevention of diabetes” (Merck Sharp & Dohme Corp., priority 2004, dated 2010)",
  "origin": "cited, not measured here",
  "key": {"[1]": {"details": "mouse, cyclophosphamide-induced neutropenia; WO 99/56753"}, "[2]": {"target": "T1, DP-IV (Homo sapiens, UniProt P27487)", "T1 construct": "GRF is rapidly degraded in plasma to GRF[3-44]", "T1 sequence (P27487 whole entry)": "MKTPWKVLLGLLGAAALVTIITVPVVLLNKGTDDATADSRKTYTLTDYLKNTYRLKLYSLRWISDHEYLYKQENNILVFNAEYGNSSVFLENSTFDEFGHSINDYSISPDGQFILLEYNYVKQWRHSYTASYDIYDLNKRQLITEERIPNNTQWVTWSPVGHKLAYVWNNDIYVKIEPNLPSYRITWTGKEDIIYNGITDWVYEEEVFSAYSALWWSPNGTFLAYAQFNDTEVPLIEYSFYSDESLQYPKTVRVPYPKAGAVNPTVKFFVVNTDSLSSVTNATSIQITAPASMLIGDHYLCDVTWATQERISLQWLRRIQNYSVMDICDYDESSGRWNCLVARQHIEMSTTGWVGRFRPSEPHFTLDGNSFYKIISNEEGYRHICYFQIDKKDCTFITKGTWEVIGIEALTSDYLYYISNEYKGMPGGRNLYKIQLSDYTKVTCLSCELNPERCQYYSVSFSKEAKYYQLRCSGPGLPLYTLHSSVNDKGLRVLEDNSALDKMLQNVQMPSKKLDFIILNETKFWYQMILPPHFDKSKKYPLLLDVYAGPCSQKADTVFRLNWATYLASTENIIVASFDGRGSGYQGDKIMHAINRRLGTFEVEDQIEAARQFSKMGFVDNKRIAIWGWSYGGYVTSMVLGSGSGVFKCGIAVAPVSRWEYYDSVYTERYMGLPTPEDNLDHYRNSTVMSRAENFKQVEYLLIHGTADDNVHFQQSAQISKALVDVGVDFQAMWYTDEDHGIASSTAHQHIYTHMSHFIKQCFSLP"}, "[3]": {"details": "rats; Transplantation, 63: 1495-1500 (1997)"}},
  "data": [
    {"compound": "CC(C)[C@H](N)C(=O)N1CCC[C@H]1B(O)O", "note": "[Val-Boro-Pro]", "values": [
      {"measurement": "hematopoiesis", "setting": "[1]", "result": "stimulated hematopoiesis"}
    ]},
    {"compound": "diprotin A", "values": [
      {"measurement": "degradation of GRF to GRF[3-44] in plasma", "setting": "[2]", "result": "prevented"}
    ]},
    {"compound": "CC(C)N1CCC(c2ccccc2)(c2ccccc2)CC1", "note": "[Prodipine, Pro-Pro-diphenyl-phosphonate]", "values": [
      {"measurement": "cardiac allograft survival", "setting": "[3]", "result": "double cardiac allograft survival in rats from day 7 to day 14"}
    ]}
  ]
}
